Consider 1 compound from EP1276895B1, “METHOD FOR THE IDENTIFICATION OF ACTIVE SITE PROTEASE INACTIVATORS” (THE UNIVERSITY OF GEORGIA RESEARCH FOUNDATION, INC., priority 2000, dated 2001).

Molecules are shown by their SMILES. Starred links: 1 amine or outer side, 2 acyl side, 3 side chain; linkers in the order of their positions; H or OH if unused. Residues, ends and D or L forms follow the SMILES beside them. *: point of attachment. AFC = O=c1cc(C(F)(F)F)c2ccc(N*)cc2o1; Suc = O=C(CCC(=O)[*:2])[*:1]

Assay [1] concerns crude mix. Kind of assay: Human IgG degradation inhibition test, western blot (Step IV), crude mix. The format is biochemical, Taenia solium. The note with it: crude mix compared with purified proteinase; data not shown. On the procedure:
(§1) To conduct this assessment, a western blot was performed. IgG digestion was detected by incubating 20 ul of T. solium purified enzyme or T. so/ium extract with 1 ug of human IgG (Sigma, St. Louis) in a final volume of 100 ul of assay buffer. Exogenous thiol activation was assessed by incubating the assay in the presence or absence of cysteine. The catalytic class of the IgG protease was determined by pre-incubating the following proteinase inhibitors at their active concentrations, with the enzyme: E 64 (10^-6 M, cysteine proteinases), phenylmethylsulfonyl fluoride (PMSF) (10^-3 M, serine proteinases), pepstatin A (10^-6 M, aspartic proteinases), and 1,10 phenanthroline (10^-3 M, metalloproteinases), and the vehicle, Mu-Leu-Tyr-AFC (10^-3 M). After addition of IgG, the assay was incubated overnight (37°C, 18 hrs). Subsequently, 100 ul of the mixture was boiled in sodium dodecyl sulfate polyacrylamide gel electrophoresis (SDS-PAGE) sample buffer with 2% 2-mercaptoethanol, separated by 12.5% SDS-PAGE, and blotted onto a polyvinylidene difluoride membrane. Tris buffered saline containing 0.1% bovine serum albumin and 0.05% Tween 20 (TBS-BSA) was used to block nonspecific binding. […]

For assay [2], the system named is purified cysteine protease of Taenia solium. The assay is described as follows: Human IgG degradation inhibition test, western blot (Step IV), purified enzyme. The class given is biochemical. The note with it: 18 hrs, 37°C, E 64 10^-6 M, vehicle 10^-3 M. On the procedure:
as §1
A general note: In western blotting, separated proteins are transferred to a membrane and probed.

As for `CC(C)C[C@H](NC(=O)CCC(=O)O)C(=O)N[C@@H](Cc1ccc(O)cc1)C(=O)Nc1ccc2c(C(F)(F)F)cc(=O)oc2c1` [Suc-Leu-Tyr-AFC] (Suc-Leu-Tyr-{AFC}), the “concentration required for inhibition of IgG cleavage” value in assay [1] is listed as “greater”. Also, in assay [2], the “inhibition of cleavage of human IgG” value is “inhibit”.
